Patent publication US20260199350A1, “FLAVONES, QUINOLINONES, QUINAZOLINONES, AND AURONES, AND USES IN CK2-MEDIATED DISEASES” (Salk Institute for Biological Studies, priority 2022, published 2026)
≈ marks a conversion by molar mass, not a printed value. Read-outs that look alike come from different tables or passages of the source.

How the values were obtained:
CK2A1 = molecular target: T1, CK2A1 (Homo sapiens, UniProt P68400); test: Radiometric kinase assay (Eurofins), CK2A1; assay type: biochemical; conditions: read-out: CK2A1 RAD IC50
T1 construct: purchased Eurofins
Source text: FIGS. 4A-4F characterize flavones for in vitro and in-cell CK2 inhibition. […] Representative of two independent experiments. […] Nonlinear fit was used to calculate IC50. […] Nonlinear fit was used to calculate IC50. […] Nonlinear fit was used to calculate IC50. […] Normalized to DMSO, data are representative of three independent experiments.
(§1) • ^1Radiometric kinase assay from Eurofins. Performed in astrocytes with a Promega Lumit IL-6 kit.

CK2A2 = molecular target: T2, CK2A2 (Homo sapiens, UniProt P19784); test: Radiometric kinase assay (Eurofins), CK2A2; assay type: biochemical; conditions: read-out: CK2A2 RAD IC50
T2 construct: purchased Eurofins
Source text: as §1

IL-6 secretion = IL-6 secretion assay in astrocytes (Promega Lumit IL-6 kit); assay type: cell-based, human; conditions: Homo sapiens, Astrocyte, read-out: IL6-Inhib.
Method: IL-6 secretion assay. HCAs were plated at 20,000 cells per well in white clear bottom 96-well plates. Two to three days later, media was removed and replaced with media containing 10 ng/mL IL1B and compound dilution series. Five hours later, plates were processed using the Lumit IL-6 Assay Kit (Promega W6030) according to the manufacturer's instructions.
• ^1Radiometric kinase assay from Eurofins. Performed in astrocytes with a Promega Lumit IL-6 kit. A series of halogenated flavones was generated and assayed (Table 3).

Aqueous solubility = assay type: physicochemical; conditions: read-out: Aqueous Solubility
NF-κB = test: NF-κB-Luciferase reporter assay in THP-1 NF-κB-Lucia cells; assay type: cell-based, human; conditions: FIG. 4D
Method: NF-κB-Luciferase reporter assay. THP-1 NF-κB-Lucia cells were plated at 10,000 cells per well with 10 ng/mL PMA. Three days later, media was removed and replaced with media containing LPS (1 μg/mL) and dilution series of compounds in flat bottom clear 96-well plates for 24 hours. A day later, 20 μL of media was transferred to a 96-well white plate and 50 μL of QuantiLuc Gold reagent (InvivoGen rep-qlcg5) was added per well; plate was mixed in the plate reader and luminescence was read using a Promega GloMax Reader.

[1] = aqueous medium (not further specified), Table 8

T2 sequence (P19784 whole entry): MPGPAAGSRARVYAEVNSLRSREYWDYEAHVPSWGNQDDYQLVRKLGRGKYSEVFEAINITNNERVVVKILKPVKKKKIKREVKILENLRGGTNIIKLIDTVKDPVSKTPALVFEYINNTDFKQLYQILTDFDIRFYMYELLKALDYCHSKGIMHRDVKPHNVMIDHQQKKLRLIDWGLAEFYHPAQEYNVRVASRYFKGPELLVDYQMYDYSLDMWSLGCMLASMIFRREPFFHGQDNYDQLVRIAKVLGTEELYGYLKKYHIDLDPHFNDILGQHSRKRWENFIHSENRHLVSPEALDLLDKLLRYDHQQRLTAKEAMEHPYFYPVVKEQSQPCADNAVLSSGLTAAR
T1 sequence (P68400 whole entry): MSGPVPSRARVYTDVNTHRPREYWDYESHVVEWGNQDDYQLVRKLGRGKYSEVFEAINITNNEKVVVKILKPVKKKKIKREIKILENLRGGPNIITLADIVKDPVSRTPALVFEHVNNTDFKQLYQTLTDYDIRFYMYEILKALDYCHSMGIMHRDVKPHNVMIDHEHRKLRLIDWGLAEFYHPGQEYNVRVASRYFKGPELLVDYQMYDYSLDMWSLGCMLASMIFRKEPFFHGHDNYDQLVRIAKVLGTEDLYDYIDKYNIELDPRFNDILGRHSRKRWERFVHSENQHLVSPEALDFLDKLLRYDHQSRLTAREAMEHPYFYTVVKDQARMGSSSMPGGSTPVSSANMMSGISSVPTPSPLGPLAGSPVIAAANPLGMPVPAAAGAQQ

| Compound | IC50 (CK2A1; Table 11, aurones) [nM] | IC50 (CK2A2; Table 11, aurones) [nM] | IC50 (IL-6 secretion; Table 11) [nM] | solubility (Aqueous solubility; Table 11) [µM] | IC50 (CK2A1; Table 8, quinazolinones) [nM] | IC50 (CK2A2; Table 8, quinazolinones) [nM] | IC50 (IL-6 secretion; Table 8) [nM] | solubility (Aqueous solubility; [1]) [µM] | also measured |
| --- | --- | --- | --- | --- | --- | --- | --- | --- | --- |
| COc1ccc2c(c1Br)O/C(=C\c1ccc(O)cc1Br)C2=O [JKT.816A] | 119 | 1520 | > 10000 | < 0.01 | – | – | – | – | – |
| COc1ccc2c(c1Br)O/C(=C\c1ccc(O)c(Cl)c1)C2=O [JKT.817A] | 59 | 53 | 6500 | < 0.01 | – | – | – | – | – |
| COc1ccc2c(c1Br)O/C(=C\c1ccc(O)cc1Cl)C2=O [JKT.818A] | > 5000 | > 5000 | > 10000 | < 0.01 | – | – | – | – | – |
| COc1ccc2c(c1Br)O/C(=C\c1ccc(O)c(C(F)(F)F)c1)C2=O [JKT.819A] | 540 | 660 | 5900 | 17 (≈ 7.06 µg/mL) | – | – | – | – | – |
| COc1cc(/C=C2\Oc3c(ccc(OC)c3Br)C2=O)ccc1O [JKT.820A] | 7 | 6 | > 10000 | < 0.01 | – | – | – | – | – |
| COc1ccc2c(c1Br)O/C(=C\c1ccc(C(=O)O)cc1)C2=O [JKT.821A] | 1540 | 206 | > 10000 | 196 (≈ 73.4 µg/mL) | – | – | – | – | – |
| O=C1/C(=C/c2cc(Cl)c(O)c(Cl)c2)Oc2c(Br)cc(Br)cc21 [JKT.822A] | 2010 | 804 | 2000 | < 0.01 | – | – | – | – | – |
| COc1c(Br)cc2c(c1Br)O/C(=C\c1cc(Cl)c(O)c(Cl)c1)C2=O [JKT.823A] | > 5000 | 1220 | 5500 | 167 (≈ 82.5 µg/mL) | – | – | – | – | – |
| COc1ccc2c(c1Br)O/C(=C\c1cc(Cl)c(O)c(Cl)c1)C2=O [JKT.824A] | 447 | 140 | 10100 | > 200 | – | – | – | – | – |
| O=c1[nH]c(-c2ccc(O)c(Br)c2)nc2c(Br)cccc12 [JKT.827A] | – | – | – | – | 281 | 860 | > 10000 | 22.4 (≈ 8.87 µg/mL) | – |
| O=c1[nH]c(-c2ccc(O)c(Cl)c2)nc2c(Br)cccc12 [JKT.828A] | – | – | – | – | 652 | 1410 | > 10000 | 58.9 (≈ 20.7 µg/mL) | – |
| O=c1[nH]c(-c2cc(Cl)c(O)c(Cl)c2)nc2c(Br)cccc12 [JKT.829A] | – | – | – | – | 736 | 659 | > 10000 | 193 (≈ 74.6 µg/mL) | – |
| O=c1[nH]c(-c2cc(F)c(O)c(F)c2)nc2c(Br)cccc12 [JKT.830A] | – | – | – | – | 866 | 1210 | > 10000 | 171 (≈ 60.4 µg/mL) | – |
| O=c1[nH]c(-c2ccc(O)c(C(F)(F)F)c2)nc2c(Br)cccc12 [JKT.831A] | – | – | – | – | > 5000 | > 5000 | > 10000 | 139 (≈ 53.5 µg/mL) | – |
| COc1cc(-c2nc3c(Br)cccc3c(=O)[nH]2)ccc1O [JKT.832A] | – | – | – | – | 3940 | > 5000 | 10500 | 61 (≈ 21.2 µg/mL) | – |
| COc1nc(-c2ccc(O)c(Br)c2)nc2c(Br)cc(Br)cc12 [JKT.842A] | – | – | – | – | 1010 | 1130 | > 10000 | < 0.01 | – |
| O=c1cc(-c2ccc(O)c(Br)n2)oc2c(Br)cc(Br)cc12 [JKT.844A] | – | – | – | – | – | – | – | – | IC50 (CK2A1; Table 4): 265 nM; IC50 (CK2A2; Table 4): 201 nM; IC50 (IL-6 secretion; Table 4): 8000 nM; solubility (Aqueous solubility; Table 4): 148 µM (≈ 70.2 µg/mL) |
| O=c1cc(-c2ccccc2)oc2cc(O)cc(O)c12 [chrysin] | – | – | – | – | – | – | – | – | Activity in THP-1-NF-κB-Lucia monocytes (NF-κB): No activity |
